Results from patent US20240336611A1 (Insilico Medicine IP Limited, priority 2021, published 2024).

What was measured:
[1] = target: T1, TNIK kinase [amino acid sequence (1-367), Invitrogen] (Homo sapiens, UniProt Q9UKE5); experiment: TNIK kinase inhibition assay (Z-lyte FRET-peptide); type: biochemical; conditions: 0.625 nM TNIK kinase, 2 μM Ser/Thr 7 peptide, 64 μM ATP, one hour at room temperature
T1 construct: purchased Invitrogen

[2] = Metabolic stability in human liver microsomes; type: in vitro ADME; conditions: LM Clint (intrinsic clearance); 1 μM test compound, 0.5 mg protein/mL microsome, 37° C., up to 60 min
Experimental: 2.1. Test Compound and Control Working Solution Preparation: Working solution: 5 µL of compound and control stock solution (10 mM in dimethyl sulfoxide (DMSO)) were diluted with 495 μL of acetonitrile (ACN) (intermediate solution concentration: 100 μM, 99% ACN).
2.2.1. […] 2.2.2. Preparation Procedure: The appropriate amount of NADPH powder were weighed and diluted into a 10 mM MgCl2 solution (working solution concentration: 10 unit/mL; final concentration in reaction system: 1 unit/mL).
2.3.2. Preparation Procedure: The appropriate concentrations of microsome working solutions were prepared in 100 mM potassium phosphate buffer. 2.4. Stop Solution Preparation: Cold (4° C.) acetonitrile (ACN) containing 200 ng/mL tolbutamide and 200 ng/mL labetalol as internal standards (IS) were used as the stop solution.
2.5.1. Pre-warm empty ‘Incubation’ plates T60 and NCF60 for 10 min minutes. 2.5.2. Liver microsomes were diluted to 0.56 mg/mL in 100 mM phosphate buffer. 2.5.3. 445 uL microsome working solutions (0.56 mg/mL) were transferred into pre-warmed ‘Incubation’ plates T60 and NCF60. Then ‘Incubation’ plates T60 and NCF60 were pre-incubated for 10 min at 37° C. with constant shaking. 54 μL liver microsomes were transferred to blank plate, then 6 μL NAPDH cofactor were added to the blank plate, and then 180 μL quenching solution can be added to blank plate. 2.5.4 5 μL compound working solution (100 μM) were added into ‘incubation’ plates (T60 and NCF60) containing microsomes and mix 3 times thoroughly. 2.5.5. For the NCF60 plate, 50 uL of buffer were added and were mixed 3 times thoroughly. Start timing; plate was incubated at 37° C. for 60 min while shaking. 2.5.6. In ‘Quenching’ plate TO, 180 μL quenching solution were added and 6 μL NAPDH cofactor were added. Ensured the plate was chilled to prevent evaporation. 2.5.7. For the T60 plate, were mixed 3 times thoroughly, and immediately removed 54 μL mixture for the 0-min time point to ‘Quenching’ plate. Then 44 μL NAPDH cofactor were added to incubation plate (T60). Start timing; plate were incubated at 37° C. for 60 min while shaking.
2.5.8. At 5, 10, 20, 30, and 60 min, 180 μL quenching solution were added to ‘Quenching’ plates, mix once, and were serially transferred 60 μL sample from T60 plate per time point to ‘Quenching’ plates.
2.5.9. For NCF60: were mixed once, and 60 μL sample were transferred from the NCF60 incubation to ‘Quenching’ plate containing quenching solution at the 60-min time point.
2.5.10. All sampling plates were shaken for 10 min, then centrifuged at 4000 rpm for 20 minutes at 4° C. 2.5.11. 80 μL supernatant were transferred into 240 μL HPLC water, and were mixed by plate shaker for 10 min. 2.5.12. Each bioanalysis plate were sealed and shaken for 10 minutes prior to LC-MS/MS analysis.
3.1. The equation of first order kinetics were used to calculate T1/2 and Intrinsic clearance (CLint mic) in (μL/min/mg).
Equation of first order kinetic.

T1 sequence (Q9UKE5 1-367): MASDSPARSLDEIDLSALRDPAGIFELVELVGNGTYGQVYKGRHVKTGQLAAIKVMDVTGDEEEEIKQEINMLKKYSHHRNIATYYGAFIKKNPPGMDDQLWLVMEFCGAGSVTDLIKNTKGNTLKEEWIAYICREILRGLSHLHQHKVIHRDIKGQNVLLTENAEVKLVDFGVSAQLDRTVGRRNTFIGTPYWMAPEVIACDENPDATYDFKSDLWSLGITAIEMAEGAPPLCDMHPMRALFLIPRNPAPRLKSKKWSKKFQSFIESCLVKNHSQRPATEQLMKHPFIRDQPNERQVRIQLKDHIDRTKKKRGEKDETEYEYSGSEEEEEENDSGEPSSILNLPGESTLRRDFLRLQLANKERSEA

| SMILES | IC50 [1] | Human Liver Microsome (μM/min/mg) [2] |
| --- | --- | --- |
| CC(C)n1cnc(-c2ccc(F)cc2)c1-c1nc(C(=O)Nc2ccc(C3COC3)cc2F)cs1 [Compound 59] | 1 to 12 nM | + (>100 μM/min/mg as +) |
| CC(C)n1cnc(-c2ccc(F)cc2)c1-c1nc(C(=O)Nc2ccc(C3=C[C@H]4CC[C@@H](C3)N4C)cn2)cs1 [Compound 61, 2-(4-(4-fluorophenyl)-1-isopropyl-1H-imidazol-5-yl)-N-(5-((1R,5S)-8-methyl-8-azabicyclo[3.2.1]oct-2-en-3-yl)pyridin-2-yl)thiazole-4-carboxamide] | 1 to 12 nM | ++ (10-100 μM/min/mg as ++) |
| CC(C)n1cnc(-c2ccc(F)cc2)c1-c1nc(C(=O)Nc2ccc(N3CC(N(C)C)C3)cn2)cs1 [Compound 64, N-(5-(3-(dimethylamino)azetidin-1-yl)pyridin-2-yl)-2-(4-(4-fluorophenyl)-1-isopropyl-1H-imidazol-5-yl)thiazole-4-carboxamide] | 1 to 12 nM | + (>100 μM/min/mg as +) |
| CN1C2CC1CN(c1ccc(NC(=O)c3csc(-c4c(-c5ccc(F)cc5)ncn4C4CC(F)(F)C4)n3)nc1)C2 [Compound 83, 2-(1-(3,3-difluorocyclobutyl)-4-(4-fluorophenyl)-1H-imidazol-5-yl)-N-(5-(6-methyl-3,6-diazabicyclo[3.1.1]heptan-3-yl)pyridin-2-yl)thiazole-4-carboxamide] | 1 to 12 nM | ++ (10-100 μM/min/mg as ++) |
| CCN1C2CC1CN(c1ccc(NC(=O)c3csc(-c4c(-c5ccc(F)cc5)ncn4C4CC(F)(F)C4)n3)nc1)C2 [Compound 84, 2-(1-(3,3-difluorocyclobutyl)-4-(4-fluorophenyl)-1H-imidazol-5-yl)-N-(5-(6-ethyl-3,6-diazabicyclo[3.1.1]heptan-3-yl)pyridin-2-yl)thiazole-4-carboxamide] | 1 to 12 nM | ++ (10-100 μM/min/mg as ++) |
| CC(C)n1cnc(-c2ccc(F)cc2)c1-c1nc(C(=O)Nc2ccc(N3CCP(C)(=O)CC3)cn2)cs1 [Compound 85, 2-(4-(4-fluorophenyl)-1-isopropyl-1H-imidazol-5-yl)-N-(5-(4-methyl-4-oxido-1,4-azaphosphinan-1-yl)pyridin-2-yl)thiazole-4-carboxamide] | 1 to 12 nM | ++ (10-100 μM/min/mg as ++) |
| CN1C2CC1CN(c1ccc(NC(=O)c3csc(-c4c(-c5ccc(F)cc5)ncn4C4CC(F)(F)C4)n3)c(F)c1)C2 [Compound 86, 2-(1-(3,3-difluorocyclobutyl)-4-(4-fluorophenyl)-1H-imidazol-5-yl)-N-(2-fluoro-4-(6-methyl-3,6-diazabicyclo[3.1.1]heptan-3-yl)phenyl)thiazole-4-carboxamide] | 1 to 12 nM | ++ (10-100 μM/min/mg as ++) |
| CC(C)c1onc(-c2ccc(F)cc2)c1-c1nc(C(=O)Nc2ccc(C3CN(C)C3)cc2F)cs1 [Compound 88, N-(2-fluoro-4-(1-methylazetidin-3-yl)phenyl)-2-(3-(4-fluorophenyl)-5-isopropylisoxazol-4-yl)thiazole-4-carboxamide] | 1 to 12 nM | ++ (10-100 μM/min/mg as ++) |
| CC(C)c1onc(-c2ccc(F)cc2)c1-c1nc(C(=O)Nc2ccc(C3CN(C)C3)cn2)cs1 [Compound 90, 2-(3-(4-fluorophenyl)-5-isopropylisoxazol-4-yl)-N-(5-(1-methylazetidin-3-yl)pyridin-2-yl)thiazole-4-carboxamide] | 1 to 12 nM | ++ (10-100 μM/min/mg as ++) |
| CCN1CC(c2ccc(NC(=O)c3csc(-c4c(-c5ccc(F)cc5)ncn4C(C)C)n3)nc2)C1 [Compound 91, N-(5-(1-ethylazetidin-3-yl)pyridin-2-yl)-2-(4-(4-fluorophenyl)-1-isopropyl-1H-imidazol-5-yl)thiazole-4-carboxamide] | 1 to 12 nM | ++ (10-100 μM/min/mg as ++) |
| CC(C)c1onc(-c2ccc(F)cc2)c1-c1nc(C(=O)Nc2ccc(C3COC3)cc2F)cs1 [Compound 92, N-(2-fluoro-4-(oxetan-3-yl)phenyl)-2-(3-(4-fluorophenyl)-5-isopropylisoxazol-4-yl)thiazole-4-carboxamide] | 12 to 150 nM | ++ (10-100 μM/min/mg as ++) |
| CC(C)c1noc(-c2ccc(F)cc2)c1-c1nc(C(=O)Nc2ccc(C3COC3)cn2)cs1 [Compound 93, 2-(5-(4-fluorophenyl)-3-isopropylisoxazol-4-yl)-N-(5-(oxetan-3-yl)pyridin-2-yl)thiazole-4-carboxamide] | 1 to 12 nM | ++ (10-100 μM/min/mg as ++) |

Continued, values first:

| IC50 [1] | Human Liver Microsome (μM/min/mg) [2] | SMILES |
| --- | --- | --- |
| > 150 nM | + (>100 μM/min/mg as +) | O=C(Nc1ccc(C2COC2)cn1)c1coc(-c2c(-c3ccc(F)cc3)ncn2C2CC(F)(F)C2)n1 [Compound 63, 2-(1-(3,3-difluorocyclobutyl)-4-(4-fluorophenyl)-1H-imidazol-5-yl)-N-(5-(oxetan-3-yl)pyridin-2-yl)oxazole-4-carboxamide] |
| 1 to 12 nM | ++ (10-100 μM/min/mg as ++) | O=C(Nc1ccc(N2CCOCC2)cn1)c1csc(-c2c(-c3ccc(F)cc3)ncn2C2CC(F)(F)C2)n1 [Compound 65, 2-(1-(3,3-difluorocyclobutyl)-4-(4-fluorophenyl)-1H-imidazol-5-yl)-N-(5-morpholinopyridin-2-yl)thiazole-4-carboxamide] |
| 12 to 150 nM | ++ (10-100 μM/min/mg as ++) | O=C(Nc1ccc(N2CCOCC2)cn1)c1coc(-c2c(-c3ccc(F)cc3)ncn2C2CC(F)(F)C2)n1 [Compound 66, 2-(1-(3,3-difluorocyclobutyl)-4-(4-fluorophenyl)-1H-imidazol-5-yl)-N-(5-morpholinopyridin-2-yl)oxazole-4-carboxamide] |
| 1 to 12 nM | ++ (10-100 μM/min/mg as ++) | O=C(Nc1ccc(N2CCC2)cn1)c1csc(-c2c(-c3ccc(F)cc3)ncn2C2CC(F)(F)C2)n1 [Compound 68, N-(5-(azetidin-1-yl)pyridin-2-yl)-2-(1-(3,3-difluorocyclobutyl)-4-(4-fluorophenyl)-1H-imidazol-5-yl)thiazole-4-carboxamide] |
| 1 to 12 nM | ++ (10-100 μM/min/mg as ++) | O=C(Nc1ccc(N2CCOCC2)cn1)c1csc(-c2c(-c3ccc(F)cc3)ncn2C2COC2)n1 [Compound 70, 2-(4-(4-fluorophenyl)-1-(oxetan-3-yl)-1H-imidazol-5-yl)-N-(5-morpholinopyridin-2-yl)thiazole-4-carboxamide] |
| 1 to 12 nM | + (>100 μM/min/mg as +) | O=C(Nc1ccc(C2COC2)cn1)c1csc(-c2c(-c3ccc(F)cc3)ncn2C2CC(F)(F)C2)n1 [Compound 74, 2-(1-(3,3-difluorocyclobutyl)-4-(4-fluorophenyl)-1H-imidazol-5-yl)-N-(5-(oxetan-3-yl)pyridin-2-yl)thiazole-4-carboxamide] |
| 12 to 150 nM | + (>100 μM/min/mg as +) | O=C(Nc1ccc(C2COC2)cc1F)c1coc(-c2c(-c3ccc(F)cc3)ncn2C2CC(F)(F)C2)n1 [Compound 81, 2-(1-(3,3-difluorocyclobutyl)-4-(4-fluorophenyl)-1H-imidazol-5-yl)-N-(2-fluoro-4-(oxetan-3-yl)phenyl)oxazole-4-carboxamide] |
| 1 to 12 nM | ++ (10-100 μM/min/mg as ++) | CC(C)c1onc(-c2ccc(F)cc2)c1-c1nc(C(=O)Nc2ccc(C3COC3)cn2)cs1 [Compound 94, 2-(3-(4-fluorophenyl)-5-isopropylisoxazol-4-yl)-N-(5-(oxetan-3-yl)pyridin-2-yl)thiazole-4-carboxamide] |
